From patent US10793574B2, “TYK2 inhibitors and uses thereof” (Nimbus Lakshmi, Inc., priority 2016, dated 2020) come the findings set out here.

For one experiment, the target named is TYK2 JH1 kinase (Homo sapiens (Human), UniProt P29597). Description: Tyk2 radioactive kinase assay. The format is biochemical. The settings on record: active kinase assay, ATP 10 μM. On the procedure: (§1) Peptide substrate, [KKSRGDYMTMQIG], (20 μM) is prepared in reaction buffer (20 mM Hepes pH 7.5, 10 mM MgCl2, 1 mM EGTA, 0.02% Brij35, 0.02 mg/mL BSA, 0.1 mM […], 2 mM DTT, 1% DMSO. TYK2 (Invitrogen) kinase is added, followed by compounds in DMSO. 33PATP is added to initiate the reaction in ATP at 10 μM. Kinase reaction is incubated for 120 min at room temp and reactions are spotted onto P81 ion exchange paper (Whatman #3698-915), and then washed extensively in 0.75% phosphoric acid, prior to reading the radioactivity counts. For JAK2 (Invitrogen) kinase assay the peptide substrate poly[Glu:Tyr](4:1), 0.2 mg/ml is used, in the reaction carried out the same as for TYK2.
Sequence of TYK2 JH1 kinase (P29597 833-1187): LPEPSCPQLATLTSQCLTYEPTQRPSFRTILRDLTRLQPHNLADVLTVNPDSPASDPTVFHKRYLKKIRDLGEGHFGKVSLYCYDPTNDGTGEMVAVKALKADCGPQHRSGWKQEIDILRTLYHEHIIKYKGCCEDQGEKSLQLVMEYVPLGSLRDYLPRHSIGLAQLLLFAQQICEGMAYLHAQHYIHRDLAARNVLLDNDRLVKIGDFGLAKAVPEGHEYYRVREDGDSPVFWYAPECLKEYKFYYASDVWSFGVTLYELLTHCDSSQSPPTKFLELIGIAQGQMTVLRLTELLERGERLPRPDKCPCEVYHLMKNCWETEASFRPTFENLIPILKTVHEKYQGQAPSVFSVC

In the next experiment the target is JAK2 JH1 kinase (Homo sapiens (Human), UniProt O60674). The experiment is described as follows: JAK2 radioactive kinase assay. The format is biochemical. The settings on record: active kinase assay, ATP 10 μM. As to the method: as §1
Sequence of JAK2 JH1 kinase (O60674 808-1132): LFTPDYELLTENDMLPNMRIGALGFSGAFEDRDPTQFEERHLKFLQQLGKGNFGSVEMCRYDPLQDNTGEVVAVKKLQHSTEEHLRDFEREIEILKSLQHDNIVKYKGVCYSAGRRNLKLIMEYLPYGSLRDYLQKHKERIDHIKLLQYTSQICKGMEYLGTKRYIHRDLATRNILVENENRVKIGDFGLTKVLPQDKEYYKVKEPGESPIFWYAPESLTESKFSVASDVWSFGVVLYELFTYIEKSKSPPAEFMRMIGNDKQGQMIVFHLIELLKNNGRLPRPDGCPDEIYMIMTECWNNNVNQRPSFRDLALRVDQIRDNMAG

For the compound `COc1c(Nc2cc(NC(=O)C3CC3)nc3[nH]n(C)c(=O)c23)cccc1-c1nnn(C)n1` [Compound I-1, N-(4-((2-methoxy-3-(2-methyl-2H-tetrazol-5-yl)phenyl)amino)-2-methyl-3-oxo-2,3-dihydro-1H-pyrazolo[3,4-b]pyridin-6-yl)cyclopropanecarboxamide], the “inhibitory activity against TYK2 JH1 kinase function” value on TYK2 JH1 kinase is listed as “no detectable inhibitory activity”.
For `COCc1ccnc(Nc2cc(Nc3cccc(-c4nnn(C)n4)c3OC)c3c(=O)n(C)[nH]c3n2)c1` [Compound I-2, 4-((2-methoxy-3-(2-methyl-2H-tetrazol-5-yl)phenyl)amino)-6-((4-(methoxymethyl)pyridin-2-yl)amino)-2-methyl-1,2-dihydro-3H-pyrazolo[3,4-b]pyridin-3-one], the “inhibitory activity against TYK2 JH1 kinase function” value at TYK2 JH1 kinase is “no detectable inhibitory activity”.
With `COc1c(Nc2cc(NC(=O)C3CC3)ncc2-c2ncc(Cl)s2)cccc1-c1nnn(C)n1` [VIII-1, N-(5-(5-chlorothiazol-2-yl)-4-((2-methoxy-3-(2-methyl-2H-tetrazol-5-yl)phenyl)amino)pyridin-2-yl)cyclopropanecarboxamide], on TYK2 JH1 kinase, the “inhibitory activity against TYK2 JH1 kinase function” value is recorded as “no detectable inhibitory activity”. Also, the “inhibitory activity against JAK2 JH1 kinase function” value on JAK2 JH1 kinase is “no detectable inhibitory activity”.
For `COc1c(Nc2cc(NC(=O)C3CC3)ncc2-c2ncc(F)s2)cccc1-c1nnn(C)n1` [VIII-2, N-(5-(5-fluorothiazol-2-yl)-4-((2-methoxy-3-(2-methyl-2H-tetrazol-5-yl)phenyl)amino)pyridin-2-yl)cyclopropanecarboxamide], the “inhibitory activity against TYK2 JH1 kinase function” value on TYK2 JH1 kinase is “no detectable inhibitory activity”. In addition, on JAK2 JH1 kinase, the “inhibitory activity against JAK2 JH1 kinase function” value was “no detectable inhibitory activity”.
As to `COc1c(Nc2cc(NC(=O)C3CC3)ncc2-c2nnc(C(F)(F)F)o2)cccc1-c1ncn(C)n1` [VIII-3, N-(4-((2-methoxy-3-(1-methyl-1H-1,2,4-triazol-3-yl)phenyl)amino)-5-(5-(trifluoromethyl)-1,3,4-oxadiazol-2-yl)pyridin-2-yl)cyclopropanecarboxamide], on TYK2 JH1 kinase, the “inhibitory activity against TYK2 JH1 kinase function” value is recorded as “no detectable inhibitory activity”. Also, the “inhibitory activity against JAK2 JH1 kinase function” value at JAK2 JH1 kinase is reported as “no detectable inhibitory activity”.
For `COC(=O)c1nnc(-c2cnc(NC(=O)C3CC3)cc2Nc2cccc(-c3ncn(C)n3)c2OC)o1` [VIII-4, methyl 5-(6-(cyclopropanecarboxamido)-4-((2-methoxy-3-(1-methyl-1H-1,2,4-triazol-3-yl)phenyl)amino)pyridin-3-yl)-1,3,4-oxadiazole-2-carboxylate], at TYK2 JH1 kinase, the “inhibitory activity against TYK2 JH1 kinase function” value is listed as “no detectable inhibitory activity”. Also, at JAK2 JH1 kinase, the “inhibitory activity against JAK2 JH1 kinase function” value was “no detectable inhibitory activity”.
